Experimental findings from a melting point compilation (Tetko et al.; mined from patent text by program, amines drawn as free bases though some values may be those of a salt) are described below.

As a reminder, the melting point is the temperature, or range, at which the solid turns liquid. As for `NC(=O)c1ccc(F)c2c1OCC(N(CCCc1c[nH]c3c(F)cc(F)cc13)CC1CC1)C2` (centres undefined), the melting point worked out at 124 °C. For `O=C(NC(=O)c1ccccc1Cl)C(=C1NCCCS1)[N+](=O)[O-]` the value was 130 to 131 °C; for `O=C(O)c1cn(C2CC2)c2c(F)c(N3CC4CCC3CN4)c(F)cc2c1=O` (centres undefined), 275 to 280 °C. Then `OCc1ccc(-c2ccccc2-c2nnn(C(c3ccccc3)(c3ccccc3)c3ccccc3)n2)cc1`, with 168 to 170 °C; and `COc1ccc(CSc2nnc(-c3ccc4occ(-c5ccc(OC)cc5)c4c3)o2)cc1`, with 162 to 163 °C; and `COCCNc1ccc(C2=NNC(=O)NC2C)cc1` (centres undefined), with 160 to 165 °C. Then `Cc1ccc(Sc2ccccc2C(=O)N(C)C)c([N+](=O)[O-])c1`, with 105 to 106 °C; and `Cc1cc(O)nc2c1c(C)nn2-c1ccccn1`, with 254 to 255 °C; and `COc1ccc(-c2nc(C(=O)c3ccc([N+](=O)[O-])c(OC)c3)n3ccccc23)cc1`, with 185 °C. The compound `c1ccc(NC2=NC(Nc3ccccc3)(c3ccccc3)C(c3ccccc3)=N2)cc1` (centres undefined) displayed a melting point of 153 to 156 °C. Then `COc1ccc(Cl)cc1-c1c(N)c(=O)[nH]c2cc([N+](=O)[O-])ccc12`, with 293 to 295 °C; and `CC(C)=CCN1CC(NC(=O)Nc2cccc(C(=O)O)c2)C(=O)N(CC(=O)c2ccccc2C)c2cc(C)ccc21` (centres undefined), with 129 to 131 °C; and `CCCOc1ccccc1-c1ncc(N)c(=O)[nH]1`, with 157 to 158 °C. For `Nc1ccc2cccc(N3CCNCC3)c2c1` the value was 184 to 186 °C; for `C=C(Cl)CONC(=O)c1nc(-c2ccc(Cl)c(OC)c2F)cc(N)c1Cl`, 146 to 148 °C.

On to `CCCCCCCCCCCCCCCCCC(=O)NC(C)Cc1cccc(C(F)(F)F)c1` (centres undefined), for which the melting point lay in the range of 74 to 76 °C. For `COC1=C(OC)C(=O)C2=C(CCC(CCOc3cc(OC)cc(OC)c3)CC2)C1=O`, the melting point was 63 to 65 °C. For `COc1cc(C(F)(F)F)cc(OC)n1` the value was 26 to 27 °C; for `COc1ccc(C(C#Cc2ccccc2)Cc2nc(C)co2)cc1OC1CCCC1` (racemic), 56 to 57 °C; for `COc1cc(C=O)ccc1OCC(O)CN1CCC(c2noc3cc(F)ccc23)CC1` (centres undefined), 107 to 108 °C. For `COCCN(C)Cc1c(-c2ccc(N)cc2)sc2c1c(=O)n(-c1ccc3c(c1)OCO3)c(=O)n2Cc1c(F)cccc1F` the value was 200 to 202 °C; for `Clc1ccccc1N1CCN=C1C(Cn1ccnc1)c1ccccc1` (centres undefined), 118 to 122 °C. Then `Cc1ccc2c(n1)Oc1ccc(C(C)C(=O)OCC(N)=O)cc1C2` (centres undefined), with 175 to 177 °C. In turn, `CC1(C)COC(=O)N1c1nc(-c2ccc(Cl)c(Cl)c2)cs1` showed a melting point of 134 to 137 °C. For `NC(=O)c1ccc(OCC2CO2)c(I)c1` (centres undefined), the melting point was in the range of 149 to 151 °C.

For `N#Cc1ccc(-c2ccc(-c3ccco3)o2)cc1`, the melting point lay in the range of 104 to 105 °C.

With `CCOC(=O)C=Cc1ccc(N[C@@H](CCC(N)=O)C(=O)O)cc1`, the melting point was in the range of 192 to 193 °C.

Compound `CC(C)Oc1ccc2c(c1)Oc1ccccc1S2(=O)=O` showed a melting point of 94 to 95 °C. `Cn1nc(-c2cnc3[nH]cc(C(=O)NC4CCCOC4)c3n2)c2ccc(Cl)cc21` (centres undefined) yielded a melting point of 320 to 323 °C.

Consider `Cn1cc(-c2cccc(C(F)(F)F)c2)c(=O)c(-c2ccc(F)cc2Cl)c1`, for which the melting point was 183 to 186 °C. For `N#Cc1c(Br)[nH]c(Br)c1Br` the value was 151 to 152 °C; for `CCCN1CCc2[nH]c3ccc4sccc4c3c2C1`, 143 to 144 °C; for `C#CC(C)(O)CCC=C(C)CCC=C(C)CCC=C(C)CCC=C(C)CCC=C(C)CCC=C(C)CCC=C(C)CCC=C(C)CCC=C(C)CCC=C(C)C` (centres undefined), 35.5 to 36.5 °C. For `CCOc1ccc(C2=NN(Cc3ccccc3)C(=O)[C@H]3CCCC[C@@H]23)cc1OCC` (relative stereo) the value was 91 to 92 °C.
